{
  "source": "patent US20210002295A1",
  "about": "“SMALL MOLECULE DEGRADERS THAT RECRUIT DCAF15” (Dana-Farber Cancer Institute, Inc., priority 2017, published 2021)",
  "origin": "cited, not measured here",
  "target": "bromodomains of BET proteins",
  "conditions": "stated for small molecule BET inhibitors",
  "data": [
    {"smiles": "Cc1sc2c(c1C)C(c1ccc(Cl)cc1)=N[C@@H](CC(=O)OC(C)(C)C)c1nnc(C)n1-2", "note": "[JQ1]", "values": [
      {"measurement": "Kd", "result": "~10", "unit": "nM"}
    ]}
  ]
}
